Results taken from PubChem BioAssay (NCI).
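48-hour exposure; five concentrations; linearly interpolated endpoints. GI50 is the concentration that inhibits growth by half. TGI is the concentration that stops growth completely.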

Assays:
Assay in all cases: NCI-60 cell line screen, 48 h
[1] = test system: UACC-257 melanoma
[2] = test system: KM12 colon
[3] = test system: UACC-62 melanoma
[4] = test system: M14 melanoma
[5] = test system: SK-MEL-28 melanoma
[6] = test system: SF-268 CNS
[7] = test system: HOP-62 NSCLC
[8] = test system: SK-OV-3 ovarian
[9] = test system: A549 NSCLC
[10] = test system: SK-MEL-5 melanoma
[11] = test system: SN12C renal
[12] = test system: OVCAR-4 ovarian
[13] = test system: CAKI-1 renal
[14] = test system: NCI/ADR-RES ovarian
[15] = test system: MDA-MB-231 breast
[16] = test system: BT-549 breast
[17] = test system: PC-3 prostate

| SMILES | TGI [1] [µM] | TGI [2] [µM] | TGI [3] [µM] | TGI [4] [µM] | TGI [5] [µM] | TGI [6] [µM] | TGI [7] [µM] | TGI [8] [µM] | TGI [9] [µM] | TGI [10] [µM] | TGI [11] [µM] | TGI [12] [µM] | TGI [13] [µM] | TGI [14] [µM] | TGI [15] [µM] | TGI [16] [µM] | TGI [17] [µM] | GI50 [11] [µM] | GI50 [3] [µM] | GI50 [7] [µM] |
| --- | --- | --- | --- | --- | --- | --- | --- | --- | --- | --- | --- | --- | --- | --- | --- | --- | --- | --- | --- | --- |
| COc1ccc2nc(NC(=O)C(=O)C(C(=O)c3ccccc3-c3ccccc3)C3OC(=O)c4ccccc43)sc2c1 (configuration not stated) | > 100 | 54.9 | 34.3 | 41.5 | 51 | 63.2 | 35.3 | 88 | 76.4 | 31.1 |  |  |  |  |  |  |  |  |  |  |
| Cc1nc2ccccc2c(=O)n1NC(=S)Nc1cccc(Cl)c1 | > 100 | > 100 | > 100 | > 100 | > 100 | > 100 | > 100 | > 100 | > 100 | > 100 | > 100 | > 100 | > 100 |  |  |  |  |  |  |  |
| O=C(Nc1nnc(-c2c(Cl)c(Cl)c(Cl)c(Cl)c2-c2nc3cc(C(=O)c4ccccc4)ccc3[nH]2)o1)c1ccccc1 | 85.7 | > 100 |  | 34.4 | 45.4 |  | 26.3 | 52.2 | 31.9 | 18.5 | 31.3 | 95.1 | > 100 | 33.3 | 33.7 | 73.4 | 28.3 |  |  |  |
| CN1CCCC1=NC#N |  | > 100 | > 100 | > 100 | > 100 | > 100 | > 100 | > 100 | > 100 | > 100 | > 100 | > 100 | > 100 | > 100 | > 100 |  | > 100 |  |  |  |
| O=C(O)c1nc2ccccc2nc1Nc1ccc(F)cc1 | > 100 | > 100 | 77.6 | > 100 | > 100 | 99.2 | > 100 |  | > 100 | 54.2 |  | > 100 | 63.4 | > 100 |  | > 100 | 90.7 |  |  |  |
| CC(C)(C)CC(C)(C)N=C(N)NO | > 100 | > 100 | > 100 | > 100 | > 100 | > 100 | > 100 | 99.1 | > 100 | > 100 | > 100 | > 100 | > 100 | > 100 | > 100 |  | > 100 |  |  |  |
| O=C1/C(=C/c2ccccc2)N=C(c2ccccc2)N1C1Nc2cc3c(cc2S1)NC(N1C(=O)/C(=C/c2ccccc2)N=C1c1ccccc1)S3 (configuration not stated) | > 100 | 55.6 |  | > 100 | > 100 | > 100 | > 100 | > 100 |  | > 100 |  | > 100 | > 100 | > 100 | > 100 |  | > 100 |  |  |  |
| COc1ccc(/C=C2\SC(c3ccc(OC)cc3)N(NC(=O)Cc3ccccc3)C2=O)cc1 (configuration not stated) | > 100 | > 100 | > 100 | > 100 | > 100 | > 100 | > 100 | > 100 | > 100 | > 100 | > 100 | > 100 | > 100 |  |  |  |  |  |  |  |
| CCOC(=O)CCC(C(=O)OCC)n1nnc2ccc(Nc3c(C)[n+]([O-])c4cc(Cl)ccc4[n+]3[O-])cc21 (configuration not stated) | 30.8 | 86.7 | 35.1 | 40.2 |  | 55.1 | > 100 | > 100 | > 100 |  | 66.9 | 39.1 | > 100 | > 100 |  | 78.1 | > 100 |  |  |  |
| CN(C)c1nc(=NCc2cccs2)ss1 | > 10 | > 10 | > 10 | > 10 | > 10 | > 10 | > 10 | > 10 | > 10 | > 10 | > 10 | > 10 | > 10 | > 10 | > 10 |  | > 10 |  |  |  |
| O=C(Nc1nc2ccccc2n1Cc1ccc(Cl)cc1)NC12CC3CC(CC(C3)C1)C2 | > 100 | > 100 | 38 | > 100 | 68.3 | 23.8 | 37.3 | 39.2 | 66.5 | > 100 | > 100 | 28.9 | > 100 |  |  |  |  |  |  |  |
| COc1ccc(OC)c(C#Cc2ccc(OC)c(C(=O)NCCc3ccc(F)cc3)c2)c1 | > 100 | > 100 | > 100 | > 100 |  | > 100 | > 100 |  | > 100 | > 100 | > 100 | > 100 | > 100 | > 100 |  | > 100 | > 100 | > 100 | 5.96 | 4.94 |
| Cc1nc(-c2nc(C)c(C(=O)NN(C)C)s2)sc1C(=O)NN(C)C | > 100 | > 100 | > 100 | > 100 | > 100 | > 100 | > 100 | > 100 |  | > 100 | > 100 | > 100 | > 100 |  |  |  |  |  |  |  |
| COC(=O)c1c2c(c(-c3ccccc3)c3c1-c1nc(Cl)ccc1CC3)CCc1ccc(Cl)nc1-2 | > 100 | > 100 | > 100 | > 100 | > 100 | > 100 | > 100 | > 100 | > 100 | > 100 | > 100 | > 100 | > 100 |  |  |  |  |  |  |  |
| Cc1cc(C)n(-c2nc3ccccc3c(=O)n2-c2ccccc2)n1 | > 100 |  |  | > 100 | > 100 | > 100 | > 100 | > 100 | > 100 | > 100 | > 100 | > 100 | > 100 | > 100 | > 100 |  | > 100 |  |  |  |
| COc1ccc(C2CC(=O)CC(c3ccc(OC)cc3)C23C(=O)NC(=S)NC3=O)cc1 (configuration not stated) | > 100 | > 100 | > 100 | > 100 | > 100 | > 100 | > 100 |  |  | > 100 | > 100 | > 100 | > 100 | > 100 |  | > 100 | > 100 |  |  |  |
